What was measured:
[1] = system: H3255 cells; assay: Cell viability, parental H3255 cells; type: cell-based; conditions: Homo sapiens, NCI-H3255, read-out: erlotinib IC50, EGFR L858R
Experimental: (§8) Cell growth and viability assays. Cells were seeded at a density of 3000 cells/well in 96-well plates in RPMI 1640 containing 10% FBS overnight, then treated with respective agents for an additional 3 days. Viable cell numbers were determined using CellTiterGLO or MTS assay kit, as indicated in the descriptions of the drawings, according to the manufacturer's protocols (Promega, Madison, Wis., USA). Each assay consisted of 3 replicate wells and was repeated at least twice. Data were expressed as the percentage survival of control calculated from the absorbance, corrected for background.

[2] = system: H3255 ER sublines; assay: Cell viability, erlotinib-resistant H3255 ER sublines; type: cell-based, human; conditions: for effect on sensitivity to concurrent erlotinib treatment: H3255 ER sublines
From the text: Establishment of erlotinib-resistant subclones.
(§1) Cell growth and viability assays.

[3] = system: PC9 cells; assay: Cell viability (CellTiterGLO), PC9 cells; type: cell-based; conditions: Homo sapiens, PC-9, read-out: erlotinib IC50, EGFR exon 19-deletion mutant
From the text: (§2) To address these questions, we generated cDNA constructs that encode either wild type (WT) AXL or a kinase-impaired mutant of AXL in which a key conserved lysine within the kinase domain was changed to arginine (K567R).
as §1

[4] = system: HCC827 xenograft tumors
Experimental: (§3) Tumorigenesis assays. Human lung cancer cells (as indicated) were injected subcutaneously into the flanks of CB17 SCID mice (Taconic). […] Tumor measurements were made on days indicated and expressed as described in the descriptions of the drawings. All animal experiments were performed in compliance with the guidelines of the Research Animal Resource Center of the Memorial Sloan-Kettering Cancer Center.

[5] = system: HCC827 ER1 tumors; assay: HCC827 ER1 xenograft tumors treated with erlotinib; type: in vivo, mice; conditions: ER1 tumors transduced with non-target shRNA, 12.5 mg/kg/day
Experimental: as §3

[6] = system: parental HCC827 cells; assay: Western blot of signaling biomarkers, parental HCC827 cells; type: cell-based, human; conditions: erlotinib 100 nM
Experimental: (§4) Western blot analysis. Cells were serum starved overnight and whole cell lysates were prepared using 10% TCA lysis or RIPA buffer and clarified by centrifugation. Proteins were separated by 10% SDS-PAGE gel and transferred onto PVDF membranes (Invitrogen) for Western blot analysis. After primary antibody incubation overnight, washing and incubation with secondary antibodies, blots were developed with a chemiluminescence system (Pierce).

[7] = system: HCC827 ER1 and ER2 cells; assay: Western blot of signaling biomarkers, HCC827 ER1 and ER2 cells; type: cell-based, human; conditions: for erlotinib effects (decreased pEGFR, pERK, pAKT, pRelA, increased cleaved Parp) with concurrent AXL inhibitor: concurrent treatment with erlotinib, 48 h
Experimental: as §4

[8] = system: HCC827 tumors; assay: Western blot of signaling biomarkers in HCC827 xenograft tumors; type: in vivo, mice
Experimental: as §4, §3

[9] = system: ER4 cells; assay: Apoptosis by PARP cleavage and BIM induction in ER4 cells; type: cell-based, human; conditions: 24 hour exposure; AD57 1 micromolar, AD80 1 micromolar
Experimental: FIG. 22. Induction of apoptosis by combined EGFR and AXL inhibition. […] 24-hour drug exposure. Apoptosis measured by induction of PARP cleavage and BIM induction.

[10] = system: HCC827 ER1-ER5 sublines; assay: Cell viability assay (CellTiterGLO), erlotinib resistant HCC827 ER1-ER5 sublines; conditions: for effect of single-agent treatment on cell viability: 1 μM alone, HCC827 ER cells; for effect on sensitivity to concurrent erlotinib treatment: AXL inhibitor 1 μM plus erlotinib, each ER subline
Experimental: as §8

[11] = system: HCC827ER cells; assay: Combination index (CI) analysis with erlotinib; type: cell-based, human; conditions: ER1 and ER4 sublines; 1:1 ratio; CI < 1 = synergism
From the text: Combination index (CI) analysis. […] The fraction affected (Fa) (i.e., Fa of 0.25 is equivalent to 75% viable cells) and CI values processed using CalcuSyn software (Biosoft, Cambridge, UK). CI values of less than 1, 1, and greater than 1 were taken as synergism, additive effect, and antagonism, respectively.

[12] = system: HCC827 cells; assay: Cell viability assay (CellTiterGLO), parental HCC827 cells; conditions: 1 μM alone
Experimental: Cell lines and reagents. The human lung cancer cell lines were purchased from the American Type Culture Collection except for H3255, PC-9 cells were generously provided. Cells were grown in RPMI 1640 supplemented with 10% FBS and 1× Antibiotic/Antimycotic (Invitrogen) and were in the logarithmic growth phase at the initiation of all experiments. […] Drugs were dissolved in DMSO at 10 mM and stored at −20° C. The final DMSO concentration in all experiments was <0.1% in medium. All antibodies were purchased from Cell Signaling (Boston, Mass.) except the anti-AXL and anti-phospho-AXL and anti-GAS6 antibodies, which were purchased from R&D Systems (Minneapolis, Minn.).
as §8

[13] = system: HCC827 ER3 cells; assay: Migration and adhesion, HCC827 ER3 cells; type: cell-based, human; conditions: XL-880 1 μM (FIG. 4c-d)
Experimental: (§5) [Vuoriluoto, K. et al. Oncogene 30, 1436-1448 (2011)] […] Together, the data support a possible role for an EMT that is marked by vimentin overexpression in the development of acquired EGFR TKI resistance that is driven by AXL in this model of human EGFR mutant lung cancer.
(§6) Migration and adhesion studies. 180,000 cells were plated onto 3.5 cm cell culture dishes. At 30 minutes, the dishes were washed and cells were fixed and stained for counting. Average cell numbers of 5 random 100× fields under light microscope are presented with ±SEM. Migration: 10,000 cells in 200 μl medium without FBS were placed in the upper chamber of transwells (6.5 mm diameter, 8 μm pore size polycarbonate membrane, Corning), and the lower chamber filled with 1 ml of medium with 10% FBS supplemented with or without the indicated drug treatments. After incubation for 16 hours, non-migrating cells were removed with cotton swabs, and the cells that migrated into the lower surface of the filters were stained with crystal violet. Cells were counted under a microscope, and triplicate results are expressed as means±SEM.

[14] = system: parental HCC827 cells; assay: Migration and adhesion, parental HCC827 cells; type: cell-based, human; conditions: XL-880 1 μM (FIG. 4c-d)
Experimental: as §5, §6

[15] = system: HCC827 cells expressing AXL constructs; assay: Viability of HCC827 cells expressing AXL cDNA constructs; type: cell-based, human
From the text: as §2, §1
(§7) AXL cDNA and overexpression studies. The AXL gene with an HA tag at the C-terminus was amplified by overlapping PCR using cDNA generated from ER3 cells and cloned into pcDNA3.1 (+) vector. Amino acid changes (K567R or L620M) were introduced using the Strategene QuickChange Mutagenesis Kit, according to the manufacturer's protocol. The accuracy of the constructs was confirmed by DNA sequencing. Cells were transfected with the AXL-expressing vectors or empty vector as a control by using FuGENE HD reagent according to the manufacturer's protocol (Roche Applied Sciences, Indianapolis, Ind., USA). Stable HCC827 subclones resistant to the selection antibiotic, 500 μg/ml G418 were generated 24 hours post-transfection. Empty-vector expressing HCC827 cells were generated as a control. AXL protein expression was detected by using anti-HA probe (Santa Cruz Biotechnology).

[16] = system: AXL; assay: pAXL western blot in HCC827 cells expressing AXL L620M; type: cell-based, human
Experimental: Cancer research 69, 8009-8016 (2009); Yun, C. H. et al. PNAS 105, 2070-2075 (2008)] (FIG. 18).
as §4, §7

[17] = ER4 cells, 0.1, 1, 10 micromolar in combination with erlotinib

`C#Cc1cccc(Nc2ncnc3cc(OCCOC)c(OCCOC)cc23)c1` [Erlotinib, erlotinib] was tested. Which IC50 [1] did it give?
The IC50 was ~15 nM.

What about the IC50 ([2]; Homo sapiens, NCI-H3255, read-out: erlotinib IC50, 2 isogenic erlotinib-resistant sublines of H3255 (EGFR L858R)) of the same compound?
The IC50 was > 1000 nM.

What about the IC50 [3] of the same compound?
Its IC50 is ~25 nM.

What about the “Maximum Volume Reduction (% change from baseline)” value ([4]; erlotinib 25 mg/kg, 10 tumors per group, average) of the same compound?
The value was −69 % change from baseline.

And the “Time to Maximum Volume Reduction (weeks)” value ([4]; erlotinib 25 mg/kg, median ± SEM)?
The value was 5 ± 0.2 weeks.

And the “tumor response to erlotinib treatment” value ([4]; parental HCC827 tumors, 12.5 mg/kg/day)?
The value was “sensitive”.

And the “tumor response to erlotinib treatment” value [5]?
The value was “erlotinib-resistant”.

And the “effect on pERK, pAKT, pRelA and Parp cleavage” value [6]?
The value was “decreased pERK, pAKT and pRelA (a marker of NF-kB signaling) and increased Parp cleavage”.

What about the “effect on pEGFR” value ([6]; parental HCC827) of the same compound?
The value was “decreased pEGFR”.

What about the “effect on pEGFR” value ([7]; erlotinib 100 nM, ER1 and ER2 sublines) of the same compound?
Its value is “decreased pEGFR”.

And the “effect on pEGFR, pErbB3 and pMET in tumors” value ([8]; sensitive tumors at 48 h and resistant tumors at each dose, vs vehicle)?
The value was “decreased levels of pEGFR, pErbB3, and pMET”.

What about the “effect on pAKT, pERK, pRelA and Parp cleavage in tumors” value ([8]; sensitive tumors, 48 h treatment, 12.5 mg/kg/day) of the same compound?
Its value is “decreased pAKT, pERK, and pRelA and increased Parp cleavage”.

How did the “apoptosis (PARP cleavage and BIM induction) combined with erlotinib” value [9] turn out when `CC(C)n1nc(-c2ccc(NC(=O)Nc3cccc(C(F)(F)F)c3)cc2)c2c(N)ncnc21` [AD57] was run?
Its value is “enhances apoptosis”.

And the “effect on sensitivity to erlotinib” value [10, 17]?
The value was “confer dose-dependent sensitivity to erlotinib”.

Which “effect on sensitivity to concurrent erlotinib treatment” value [2] does the source give for `S=C(NCc1ccc2c(c1)OCO2)N1CCN(c2ncnc3c2oc2ccccc23)CC1` [MP-470, amuvatinib] here?
Its value is “restored sensitivity to concurrent erlotinib treatment”.

What about the “synergy with concurrent erlotinib treatment (combination index)” value [11] of the same compound?
Its value is “synergistic”.

What about the “erlotinib effects (decreased pEGFR, pERK, pAKT, pRelA, increased cleaved Parp) with concurrent AXL inhibitor” value [7] of the same compound?
Its value is “observed only upon concurrent treatment”.

And the “effect of single-agent treatment on cell viability” value (shortened to “effect of single-agent treatment”) [12]?
Its value is “did not significantly affect the viability”.

What about the “effect of single-agent treatment” value [10] of the same compound?
The value was “did not significantly affect the viability”.

What about the “effect on sensitivity to concurrent erlotinib treatment” value [10] of the same compound?
Its value is “restored sensitivity to concurrent erlotinib treatment”.

What does the source list for `CC(C)n1nc(-c2ccc(NC(=O)Nc3cc(C(F)(F)F)ccc3F)cc2)c2c(N)ncnc21` [AD80]?
apoptosis (PARP cleavage and BIM induction) combined with erlotinib [9]: enhances apoptosis; effect on sensitivity to erlotinib [10, 17]: confer dose-dependent sensitivity to erlotinib

How did the “effect on sensitivity to erlotinib” value ([10]; ER cells, at 10 μM, in combination with erlotinib) turn out when `C[C@@H](Oc1cc(-c2cnn(C3CCNCC3)c2)cnc1N)c1c(Cl)ccc(F)c1Cl` [Crizotinib, crizotinib] was run?
The value was “confers dose-dependent sensitivity to erlotinib”.

Which “effect on sensitivity to concurrent erlotinib treatment” value [2] does the source give for `COc1cc2c(Oc3ccc(NC(=O)C4(C(=O)Nc5ccc(F)cc5)CC4)cc3F)ccnc2cc1OCCCN1CCOCC1` [XL-880, foretinib] here?
Its value is “restored sensitivity to concurrent erlotinib treatment”.

And the “effect on migration and adhesion” value [13]?
Its value is “inhibited migration and adhesion”.

And the “effect on migration and adhesion” value [14]?
Its value is “had no effect”.

What about the “erlotinib effects (decreased pEGFR, pERK, pAKT, pRelA, increased cleaved Parp) with concurrent AXL inhibitor” value [7] of the same compound?
The value was “observed only upon concurrent treatment”.

What about the “ability to restore erlotinib sensitivity” value ([15]; XL-880 1 μM, HCC827 cells expressing AXL L620M) of the same compound?
The value was “abrogated the ability”.

And the “effect on erlotinib resistance induced by overexpression of WT AXL” value ([15]; XL-880 1 μM, HCC827 cells overexpressing WT AXL)?
Its value is “reversed”.

And the “change of IC50 for XL-880” value ([15]; expression of AXL L620M gatekeeper mutant)?
The value was “significantly increased”.

What about the “ability to decrease pAXL” value [16] of the same compound?
Its value is “blocked the ability”.

And the “effect of single-agent treatment” value [12]?
The value was “did not significantly affect the viability”.

What about the “effect of single-agent treatment” value [10] of the same compound?
Its value is “did not significantly affect the viability”.

What about the “effect on sensitivity to concurrent erlotinib treatment” value [10] of the same compound?
The value was “restored sensitivity to concurrent erlotinib treatment”.

— patent US20140121126A1, “METHODS OF DETECTING AXL AND GAS6 IN CANCER PATIENTS” (Memorial Sloan-Kettering Cancer Center, priority 2012, published 2014)
